Patent US20250034216A1, “STEREOSELECTIVE COVALENT LIGANDS FOR ONCOGENIC AND IMMUNOLOGICAL PROTEINS” (The Scripps Research Institute, priority 2021, published 2025)

Tests used:
Assay in all cases: IA-DTB cysteine engagement
Type in all cases: binding
[1] = target: T1, DDX39B_C87 (Homo sapiens, UniProt Q13838); conditions: 22Rv1 cells, 20 μM probe, 1 h, relative to DMSO
T1 construct: endogenous in cells; host or cells: 22Rv1
Method in brief: (§1)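 Probe-exposed cells were lysed, IA-DTB-labeled, trypsinized and streptavidin-enriched. Multiplexed TMT quantitation gave engagement ratios versus DMSO, with non-tryptic peptides excluded and intensities normalized to median summed signal.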

[2] = target: T2, UBR5_C2094 (Homo sapiens, UniProt O95071); conditions: 22Rv1 cells, 20 μM probe, 1 h, relative to DMSO
T2 construct: endogenous in cells; host or cells: 22Rv1
T2 sequence (O95071 whole entry): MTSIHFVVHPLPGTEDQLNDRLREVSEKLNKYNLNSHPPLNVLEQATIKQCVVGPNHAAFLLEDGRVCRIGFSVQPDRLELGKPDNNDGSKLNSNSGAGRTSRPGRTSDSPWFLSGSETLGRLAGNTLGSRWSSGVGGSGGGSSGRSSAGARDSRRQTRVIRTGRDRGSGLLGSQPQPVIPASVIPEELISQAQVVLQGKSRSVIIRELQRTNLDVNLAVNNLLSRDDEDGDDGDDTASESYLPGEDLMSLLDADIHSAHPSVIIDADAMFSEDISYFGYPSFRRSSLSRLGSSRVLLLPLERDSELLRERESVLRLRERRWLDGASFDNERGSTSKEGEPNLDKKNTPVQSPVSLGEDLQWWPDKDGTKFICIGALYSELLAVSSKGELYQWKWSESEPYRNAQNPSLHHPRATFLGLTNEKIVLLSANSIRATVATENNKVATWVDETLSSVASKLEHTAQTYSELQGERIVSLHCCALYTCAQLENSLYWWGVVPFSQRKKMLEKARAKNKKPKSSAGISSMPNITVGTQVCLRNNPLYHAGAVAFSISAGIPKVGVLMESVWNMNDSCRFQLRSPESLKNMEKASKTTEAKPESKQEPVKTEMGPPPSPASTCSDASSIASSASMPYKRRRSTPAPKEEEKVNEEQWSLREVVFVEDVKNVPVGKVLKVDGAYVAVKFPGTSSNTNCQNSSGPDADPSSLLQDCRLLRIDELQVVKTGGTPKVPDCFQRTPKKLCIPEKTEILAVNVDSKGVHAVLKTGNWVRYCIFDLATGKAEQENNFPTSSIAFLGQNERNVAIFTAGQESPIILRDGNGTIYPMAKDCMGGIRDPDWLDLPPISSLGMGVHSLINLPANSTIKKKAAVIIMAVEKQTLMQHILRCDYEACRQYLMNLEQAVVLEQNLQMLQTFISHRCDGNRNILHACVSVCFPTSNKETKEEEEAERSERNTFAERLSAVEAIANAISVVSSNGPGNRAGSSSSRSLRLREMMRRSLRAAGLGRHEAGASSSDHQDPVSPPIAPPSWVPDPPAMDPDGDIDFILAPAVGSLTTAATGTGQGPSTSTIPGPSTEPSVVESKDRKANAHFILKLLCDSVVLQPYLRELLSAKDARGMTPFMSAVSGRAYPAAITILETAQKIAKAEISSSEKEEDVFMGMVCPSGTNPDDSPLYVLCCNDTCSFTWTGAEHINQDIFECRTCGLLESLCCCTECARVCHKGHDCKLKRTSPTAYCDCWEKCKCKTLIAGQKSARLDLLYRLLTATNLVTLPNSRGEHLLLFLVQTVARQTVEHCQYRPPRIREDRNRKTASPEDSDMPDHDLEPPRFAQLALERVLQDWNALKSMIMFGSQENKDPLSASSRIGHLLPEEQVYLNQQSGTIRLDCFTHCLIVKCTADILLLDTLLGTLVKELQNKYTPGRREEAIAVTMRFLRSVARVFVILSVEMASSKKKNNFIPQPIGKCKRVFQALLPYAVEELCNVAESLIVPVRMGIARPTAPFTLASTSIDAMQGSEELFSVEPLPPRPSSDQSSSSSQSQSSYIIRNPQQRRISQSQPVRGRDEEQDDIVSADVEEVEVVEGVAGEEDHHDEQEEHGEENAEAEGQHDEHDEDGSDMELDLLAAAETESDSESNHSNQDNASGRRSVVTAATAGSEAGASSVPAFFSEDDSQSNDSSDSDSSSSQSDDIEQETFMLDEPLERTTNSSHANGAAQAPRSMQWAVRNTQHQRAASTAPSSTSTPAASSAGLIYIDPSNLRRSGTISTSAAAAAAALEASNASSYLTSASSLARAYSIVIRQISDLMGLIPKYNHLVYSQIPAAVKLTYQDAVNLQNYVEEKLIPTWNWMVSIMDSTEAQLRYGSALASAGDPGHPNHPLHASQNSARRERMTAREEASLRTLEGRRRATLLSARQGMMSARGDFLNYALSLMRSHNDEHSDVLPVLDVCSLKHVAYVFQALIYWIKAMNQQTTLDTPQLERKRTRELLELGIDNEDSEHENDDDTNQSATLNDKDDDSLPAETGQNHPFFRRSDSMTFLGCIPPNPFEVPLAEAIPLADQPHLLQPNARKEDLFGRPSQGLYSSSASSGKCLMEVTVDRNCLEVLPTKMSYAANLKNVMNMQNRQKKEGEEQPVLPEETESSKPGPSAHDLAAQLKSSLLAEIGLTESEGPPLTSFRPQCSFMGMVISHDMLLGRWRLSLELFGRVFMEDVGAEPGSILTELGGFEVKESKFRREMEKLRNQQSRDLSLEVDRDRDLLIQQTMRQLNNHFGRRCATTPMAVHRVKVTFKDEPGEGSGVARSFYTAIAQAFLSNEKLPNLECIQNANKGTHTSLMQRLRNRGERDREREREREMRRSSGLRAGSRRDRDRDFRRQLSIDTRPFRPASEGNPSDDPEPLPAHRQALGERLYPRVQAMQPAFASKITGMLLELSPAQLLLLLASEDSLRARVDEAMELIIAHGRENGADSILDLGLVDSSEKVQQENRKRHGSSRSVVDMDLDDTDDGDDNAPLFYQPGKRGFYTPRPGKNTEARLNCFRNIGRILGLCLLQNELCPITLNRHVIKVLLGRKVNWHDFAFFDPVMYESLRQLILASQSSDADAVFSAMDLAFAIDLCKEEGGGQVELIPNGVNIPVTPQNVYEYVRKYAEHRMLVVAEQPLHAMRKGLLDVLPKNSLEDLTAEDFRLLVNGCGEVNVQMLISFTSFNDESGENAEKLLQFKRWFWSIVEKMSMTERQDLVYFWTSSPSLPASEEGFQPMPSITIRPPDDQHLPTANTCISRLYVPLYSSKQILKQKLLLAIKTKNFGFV
Method in brief: as §1

[3] = target: T3, GNPAT_C54 (Homo sapiens, UniProt O15228); conditions: 22Rv1 cells, relative to DMSO; for % engagement GNPAT_C54: 20 μM probe, 1 h; for % engagement GNPAT_54: 5 μM probe, 1 h (FIG. 5B)
T3 construct: endogenous in cells; host or cells: 22Rv1
T3 sequence (O15228 1-680): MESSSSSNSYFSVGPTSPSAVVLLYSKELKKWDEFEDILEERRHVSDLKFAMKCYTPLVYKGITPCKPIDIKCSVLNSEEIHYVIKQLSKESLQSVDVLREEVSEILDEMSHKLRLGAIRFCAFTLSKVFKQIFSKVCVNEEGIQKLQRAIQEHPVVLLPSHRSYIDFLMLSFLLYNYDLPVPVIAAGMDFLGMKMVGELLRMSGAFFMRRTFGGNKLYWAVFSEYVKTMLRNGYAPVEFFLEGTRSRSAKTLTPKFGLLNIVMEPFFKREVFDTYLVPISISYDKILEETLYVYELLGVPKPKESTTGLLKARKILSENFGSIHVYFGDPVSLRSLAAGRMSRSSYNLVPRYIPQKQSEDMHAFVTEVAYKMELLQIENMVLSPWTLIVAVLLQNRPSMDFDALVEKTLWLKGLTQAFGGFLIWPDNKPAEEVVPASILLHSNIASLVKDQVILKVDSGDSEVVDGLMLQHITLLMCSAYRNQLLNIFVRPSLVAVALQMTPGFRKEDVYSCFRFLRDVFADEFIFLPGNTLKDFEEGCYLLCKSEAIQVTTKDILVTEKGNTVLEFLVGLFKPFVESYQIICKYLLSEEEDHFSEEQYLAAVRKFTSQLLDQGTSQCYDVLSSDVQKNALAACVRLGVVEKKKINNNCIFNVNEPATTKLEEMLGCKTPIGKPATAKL
Method in brief: as §1

[4] = target: T4, OCIAD1_C98 (Homo sapiens, UniProt Q9NX40); conditions: 22Rv1 cells, 20 μM probe, 1 h, relative to DMSO
T4 construct: endogenous in cells; host or cells: 22Rv1
T4 sequence (Q9NX40 1-245): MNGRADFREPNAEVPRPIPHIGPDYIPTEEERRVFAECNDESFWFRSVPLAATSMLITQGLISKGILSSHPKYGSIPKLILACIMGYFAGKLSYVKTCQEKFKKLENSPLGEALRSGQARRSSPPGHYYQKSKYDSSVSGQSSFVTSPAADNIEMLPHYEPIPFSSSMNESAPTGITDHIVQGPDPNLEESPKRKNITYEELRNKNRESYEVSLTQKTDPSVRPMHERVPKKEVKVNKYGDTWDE
Method in brief: as §1

T1 sequence (Q13838 whole entry): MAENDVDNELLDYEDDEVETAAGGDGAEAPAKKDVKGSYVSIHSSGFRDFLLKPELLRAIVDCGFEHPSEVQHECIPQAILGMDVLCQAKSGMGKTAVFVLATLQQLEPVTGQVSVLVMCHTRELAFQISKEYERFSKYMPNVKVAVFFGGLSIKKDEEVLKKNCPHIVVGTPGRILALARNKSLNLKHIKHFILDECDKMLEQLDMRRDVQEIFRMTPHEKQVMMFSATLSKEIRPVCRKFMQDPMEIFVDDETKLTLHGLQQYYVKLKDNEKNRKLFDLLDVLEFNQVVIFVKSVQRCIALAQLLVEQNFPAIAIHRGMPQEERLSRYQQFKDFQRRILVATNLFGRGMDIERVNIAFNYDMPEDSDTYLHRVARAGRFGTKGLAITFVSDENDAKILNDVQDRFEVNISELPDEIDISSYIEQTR

| % engagement DDX39B_C87 [1] [%] | % engagement UBR5_C2094 [2] [%] | % engagement GNPAT_C54 [3] [%] | % engagement OCIAD1_C98 [4] [%] | % engagement GNPAT_54 [3] [%] | Compound |
| --- | --- | --- | --- | --- | --- |
| 67.5 | 81 | 77.5 | 72.5 | – | C=CC(=O)N1C[C@H](c2ccc(Br)cc2)[C@H]1C(=O)Nc1cccc2cccnc12 [MY-3B, (2S,3S)-1-acryloyl-3-(4-bromophenyl)-N-(quinolin-8-yl)azetidine-2-carboxamide] |
| – | – | – | – | 51.83 | CC#CC(=O)N1C[C@H](c2ccc(Br)cc2)[C@@H]1C(=O)Nc1cccc2cccnc12 [MY-45B, (2R,3S)-3-(4-bromophenyl)-1-(but-2-ynoyl)-N-(quinolin-8-yl)azetidine-2-carboxamide] |
| 37 | 40.5 | 91.5 | 19 | 73.17 | C=CC(=O)N1C[C@H](c2ccc(Br)cc2)[C@@H]1C(=O)Nc1cccc2cccnc12 [MY-1B, (2R,3S)-1-acryloyl-3-(4-bromophenyl)-N-(quinolin-8-yl)azetidine-2-carboxamide] |
| 23.5 | 22.5 | 54.25 | 12.5 | – | C=CC(=O)N1C[C@H](c2ccc(Br)cc2)[C@H]1C(=O)Nc1cccc2cccnc12 [MY-3A, (2S,3S)-1-acryloyl-3-(4-bromophenyl)-N-(quinolin-8-yl)azetidine-2-carboxamide] |
| 44.5 | 23 | 88.5 | 26 | – | C=CC(=O)N1C[C@@H](c2ccc(Br)cc2)[C@H]1C(=O)Nc1cccc2cccnc12 [MY-1A, (2S,3R)-1-acryloyl-3-(4-bromophenyl)-N-(quinolin-8-yl)azetidine-2-carboxamide] |
